Test results: patent publication US9833455B2, “Preparation and methods of use for ortho-aryl 5-membered heteroaryl-carboxamide containing multi-targeted kinase inhibitors” (Spacefill Enterprises LLC, priority 2011, dated 2017)
Values belong to the molecule of their own block, whether it stands above or below them.

Legend:
FLT4 = FLT4 (Homo sapiens, UniProt P35916); assay: Nanosyn kinase profiling, % inhibition; format: biochemical; conditions: panel of 230 kinases
Procedure: (§1) “Inhibiting kinase activity” means to decrease the production of an phosphor-peptide by a particular kinase that can be separated by analytical techniques. For example, a comprehensive platform of kinase, protease, phosphatase and epigenetic assays that utilizes cutting-edge microfluidics and informatics tools to provide accurate and rapid results. Profiling data in this application were determined using these techniques at Nanosyn Inc. IC50 data were provided by Reaction Biology Inc using a P33 radiolabeled kinase assay.
(§2) A total of 15 new inhibitors were designed, prepared, and evaluated against a panel of 29 selected kinases in order to explore the applicability, SAR trends, and the tunability of this scaffold that could be imposed but this unique geometry, Table 21. Inhibitors I-1 to 1-12 all retained the 2-CF3-5-(4-F-phenyl) imidazole-4-carboxamide scaffold previously described (Deitrich, 2010), but explored different Hinge-Gatekeeper Motifs (HGM).
(§3) More modest activity for Aurora-A, FLT-1/4, KDR, KIT, PDGFRs was accompanied by better activity for B-Raf mutant and wild-type forms, Modest inhibition of MEK-1, BTK, c-Met, RET, and RON was also observed. […] Moreover, the observed inhibition of MEK-1 with 1-12 and TYK2 with I-6 represents additional activities against kinases for which no type-II inhibitors have been reported to date. […] To further evaluate the scope of inhibition, I-6 was evaluated against a larger panel of 230 kinases, Table-22.

PDGFR-α = PDGFR-α (Homo sapiens, UniProt P16234); assay: Nanosyn kinase profiling, % inhibition; format: biochemical; conditions: panel of 230 kinases
Procedure: as §1, §2, §3

KIT = KIT (Homo sapiens, UniProt P10721); assay: Nanosyn kinase profiling, % inhibition; format: biochemical; conditions: panel of 230 kinases
Procedure: as §1, §2, §3

EPHA2 = EPHA2 (Homo sapiens, UniProt P29317); assay: Nanosyn kinase profiling, % inhibition; format: biochemical; conditions: panel of 230 kinases
EPHA2, sequence (P29317 24-976): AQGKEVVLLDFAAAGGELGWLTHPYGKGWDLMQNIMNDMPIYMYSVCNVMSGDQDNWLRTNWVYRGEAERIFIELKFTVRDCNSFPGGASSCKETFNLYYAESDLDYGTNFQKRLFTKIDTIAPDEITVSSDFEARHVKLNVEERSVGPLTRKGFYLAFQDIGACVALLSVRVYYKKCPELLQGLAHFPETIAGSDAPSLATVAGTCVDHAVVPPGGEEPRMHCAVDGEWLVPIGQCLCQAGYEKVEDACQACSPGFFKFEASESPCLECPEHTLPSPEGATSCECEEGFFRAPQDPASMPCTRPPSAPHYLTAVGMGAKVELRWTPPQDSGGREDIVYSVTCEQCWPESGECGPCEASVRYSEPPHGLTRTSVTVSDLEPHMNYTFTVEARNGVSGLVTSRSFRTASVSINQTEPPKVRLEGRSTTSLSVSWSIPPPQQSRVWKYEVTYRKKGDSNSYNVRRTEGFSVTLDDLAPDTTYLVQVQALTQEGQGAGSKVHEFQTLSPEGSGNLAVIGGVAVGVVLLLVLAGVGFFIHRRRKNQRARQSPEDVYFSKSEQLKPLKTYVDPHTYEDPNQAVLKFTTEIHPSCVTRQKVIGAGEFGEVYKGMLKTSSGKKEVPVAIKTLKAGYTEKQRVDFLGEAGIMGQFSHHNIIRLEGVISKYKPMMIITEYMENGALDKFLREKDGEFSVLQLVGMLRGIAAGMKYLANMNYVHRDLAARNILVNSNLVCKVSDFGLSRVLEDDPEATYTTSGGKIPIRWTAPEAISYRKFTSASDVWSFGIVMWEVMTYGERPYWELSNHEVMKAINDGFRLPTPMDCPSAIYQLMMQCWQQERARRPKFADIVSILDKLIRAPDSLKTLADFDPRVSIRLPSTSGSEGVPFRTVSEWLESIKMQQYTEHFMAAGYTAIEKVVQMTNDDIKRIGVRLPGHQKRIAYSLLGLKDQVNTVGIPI
Procedure: as §1, §2, §3

TYK2 = TYK2 (Homo sapiens, UniProt P29597); assay: Nanosyn kinase profiling, % inhibition; format: biochemical; conditions: panel of 230 kinases
Procedure: as §1, §2, §3

DDR2 = target: T1, DDR2 (Homo sapiens, UniProt Q16832); assay: Nanosyn kinase profiling, % inhibition; format: biochemical; conditions: panel of 230 kinases
T1 sequence (Q16832 22-855): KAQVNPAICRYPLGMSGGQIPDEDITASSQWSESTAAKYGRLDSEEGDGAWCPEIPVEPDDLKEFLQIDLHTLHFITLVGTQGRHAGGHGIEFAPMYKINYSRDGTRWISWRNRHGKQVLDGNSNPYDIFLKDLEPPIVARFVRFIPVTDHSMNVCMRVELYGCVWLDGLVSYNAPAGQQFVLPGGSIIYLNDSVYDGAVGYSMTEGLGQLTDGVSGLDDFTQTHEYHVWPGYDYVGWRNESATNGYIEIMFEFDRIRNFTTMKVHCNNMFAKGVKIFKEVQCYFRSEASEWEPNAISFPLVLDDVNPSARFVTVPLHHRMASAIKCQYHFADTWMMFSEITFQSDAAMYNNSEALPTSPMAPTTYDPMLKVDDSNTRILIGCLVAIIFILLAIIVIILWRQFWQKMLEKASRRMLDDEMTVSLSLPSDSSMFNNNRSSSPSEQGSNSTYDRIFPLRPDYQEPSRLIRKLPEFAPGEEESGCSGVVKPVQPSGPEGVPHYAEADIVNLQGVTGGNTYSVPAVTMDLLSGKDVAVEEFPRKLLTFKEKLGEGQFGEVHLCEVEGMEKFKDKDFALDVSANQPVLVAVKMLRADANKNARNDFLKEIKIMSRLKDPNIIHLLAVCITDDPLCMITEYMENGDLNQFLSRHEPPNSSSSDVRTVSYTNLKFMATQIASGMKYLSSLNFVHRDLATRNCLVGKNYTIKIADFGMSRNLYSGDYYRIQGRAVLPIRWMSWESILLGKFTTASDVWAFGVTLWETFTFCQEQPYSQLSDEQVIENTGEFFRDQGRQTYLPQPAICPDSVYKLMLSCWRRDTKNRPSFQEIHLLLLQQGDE
Procedure: as §1, §2, §3

TIE2 = TIE2 (Homo sapiens, UniProt Q02763); assay: Nanosyn kinase profiling, % inhibition; format: biochemical; conditions: panel of 230 kinases
TIE2, sequence (Q02763 23-1124): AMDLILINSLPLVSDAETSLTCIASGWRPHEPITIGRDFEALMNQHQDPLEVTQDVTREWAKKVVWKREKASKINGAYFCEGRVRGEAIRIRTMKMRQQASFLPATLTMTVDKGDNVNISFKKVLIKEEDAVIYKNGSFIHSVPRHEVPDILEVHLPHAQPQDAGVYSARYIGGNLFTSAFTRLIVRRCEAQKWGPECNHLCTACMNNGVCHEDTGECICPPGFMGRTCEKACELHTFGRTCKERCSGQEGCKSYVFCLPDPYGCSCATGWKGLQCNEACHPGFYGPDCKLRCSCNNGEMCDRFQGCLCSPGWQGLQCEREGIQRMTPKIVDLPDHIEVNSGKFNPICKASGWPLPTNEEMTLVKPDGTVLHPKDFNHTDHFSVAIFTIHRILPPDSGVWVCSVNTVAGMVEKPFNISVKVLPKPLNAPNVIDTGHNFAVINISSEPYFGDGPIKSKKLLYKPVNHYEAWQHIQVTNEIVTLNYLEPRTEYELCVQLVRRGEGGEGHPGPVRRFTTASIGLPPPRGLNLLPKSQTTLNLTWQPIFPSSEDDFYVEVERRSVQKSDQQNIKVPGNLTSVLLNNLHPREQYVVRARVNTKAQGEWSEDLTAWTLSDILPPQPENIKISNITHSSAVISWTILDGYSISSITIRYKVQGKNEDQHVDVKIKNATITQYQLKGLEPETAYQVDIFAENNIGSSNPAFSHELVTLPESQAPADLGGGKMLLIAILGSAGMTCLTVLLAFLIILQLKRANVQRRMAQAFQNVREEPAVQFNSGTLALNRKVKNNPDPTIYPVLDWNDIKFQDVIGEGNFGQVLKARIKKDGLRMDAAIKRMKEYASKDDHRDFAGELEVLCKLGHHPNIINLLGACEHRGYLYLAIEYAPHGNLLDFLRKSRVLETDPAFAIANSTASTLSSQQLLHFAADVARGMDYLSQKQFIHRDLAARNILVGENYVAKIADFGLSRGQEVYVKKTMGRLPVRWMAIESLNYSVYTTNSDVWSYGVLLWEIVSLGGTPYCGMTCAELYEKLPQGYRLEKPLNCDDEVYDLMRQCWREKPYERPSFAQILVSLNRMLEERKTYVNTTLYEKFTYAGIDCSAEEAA
Procedure: as §1, §2, §3

RON = RON (Homo sapiens, UniProt Q04912); assay: Nanosyn kinase profiling, % inhibition; format: biochemical; conditions: panel of 230 kinases
Procedure: as §1, §2, §3

P38-α = P38-α (Homo sapiens, UniProt Q16539); assay: Nanosyn kinase profiling, % inhibition; format: biochemical; conditions: panel of 230 kinases
Procedure: as §1, §2, §3

PDGFR-β = PDGFR-β (Homo sapiens, UniProt P09619); assay: Nanosyn kinase profiling, % inhibition; format: biochemical; conditions: panel of 230 kinases
Procedure: as §1, §2, §3

HIPK4 = HIPK4 (Homo sapiens, UniProt Q8NE63); assay: Nanosyn kinase profiling, % inhibition; format: biochemical; conditions: panel of 230 kinases
Procedure: as §1, §3

MNK2 = MNK2 (Homo sapiens, UniProt Q9HBH9); assay: Nanosyn kinase profiling, % inhibition; format: biochemical; conditions: panel of 230 kinases
Procedure: as §1, §3

ARG = ARG (Homo sapiens, UniProt P42684); assay: Nanosyn kinase profiling, % inhibition; format: biochemical; conditions: panel of 230 kinases
ARG, sequence (P42684 whole entry): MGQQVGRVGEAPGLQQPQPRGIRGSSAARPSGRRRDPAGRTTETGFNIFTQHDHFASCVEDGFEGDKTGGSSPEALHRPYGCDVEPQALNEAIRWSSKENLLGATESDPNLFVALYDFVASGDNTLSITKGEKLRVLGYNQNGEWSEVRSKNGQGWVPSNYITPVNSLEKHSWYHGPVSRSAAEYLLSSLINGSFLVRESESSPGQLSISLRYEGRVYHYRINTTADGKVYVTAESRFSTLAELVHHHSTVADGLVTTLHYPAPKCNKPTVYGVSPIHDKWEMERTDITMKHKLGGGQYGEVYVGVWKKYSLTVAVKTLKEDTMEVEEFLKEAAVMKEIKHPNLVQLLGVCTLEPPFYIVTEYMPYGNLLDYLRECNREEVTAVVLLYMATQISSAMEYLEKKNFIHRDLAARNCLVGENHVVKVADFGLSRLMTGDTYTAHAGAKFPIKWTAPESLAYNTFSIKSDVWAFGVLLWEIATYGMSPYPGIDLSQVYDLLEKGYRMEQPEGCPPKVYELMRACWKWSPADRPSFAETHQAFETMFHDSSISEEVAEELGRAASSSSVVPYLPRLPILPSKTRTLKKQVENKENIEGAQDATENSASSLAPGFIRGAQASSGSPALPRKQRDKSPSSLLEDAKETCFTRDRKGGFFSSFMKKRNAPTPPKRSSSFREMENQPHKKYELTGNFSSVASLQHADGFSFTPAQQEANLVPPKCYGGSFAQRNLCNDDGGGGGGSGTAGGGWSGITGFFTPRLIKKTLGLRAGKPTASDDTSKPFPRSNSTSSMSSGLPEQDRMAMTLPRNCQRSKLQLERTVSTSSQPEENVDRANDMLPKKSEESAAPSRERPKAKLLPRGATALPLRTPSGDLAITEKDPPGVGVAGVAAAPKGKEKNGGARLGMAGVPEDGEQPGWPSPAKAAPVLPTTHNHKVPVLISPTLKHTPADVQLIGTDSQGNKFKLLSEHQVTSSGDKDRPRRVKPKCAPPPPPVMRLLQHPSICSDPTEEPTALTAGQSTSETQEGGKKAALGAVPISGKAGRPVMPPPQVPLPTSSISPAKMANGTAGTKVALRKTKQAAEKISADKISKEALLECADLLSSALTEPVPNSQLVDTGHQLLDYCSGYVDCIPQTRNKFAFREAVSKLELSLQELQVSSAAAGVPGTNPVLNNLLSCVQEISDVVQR
Procedure: as §1, §3

SPHK1 = SPHK1 (Homo sapiens, UniProt Q9NYA1); assay: Nanosyn kinase profiling, % inhibition; format: biochemical; conditions: panel of 230 kinases
Procedure: as §1, §3

MAP4K2 = MAP4K2 (Homo sapiens, UniProt Q12851); assay: Nanosyn kinase profiling, % inhibition; format: biochemical; conditions: panel of 230 kinases
Procedure: as §1, §3

EPH-A3 = EPH-A3 (Homo sapiens, UniProt P29320); assay: Nanosyn kinase profiling, % inhibition; format: biochemical; conditions: panel of 230 kinases
Procedure: as §1, §3

LCK = LCK (Homo sapiens, UniProt P06239); assay: Nanosyn kinase profiling, % inhibition; format: biochemical; conditions: panel of 230 kinases
Procedure: as §1, §3

LYNA = LYNA (Homo sapiens, UniProt P07948); assay: Nanosyn kinase profiling, % inhibition; format: biochemical; conditions: panel of 230 kinases
Procedure: as §1, §3

LYNB = LYNB (Homo sapiens, UniProt P07948); assay: Nanosyn kinase profiling, % inhibition; format: biochemical; conditions: panel of 230 kinases
Procedure: as §1, §3

HCK = HCK (Homo sapiens, UniProt P08631); assay: Nanosyn kinase profiling, % inhibition; format: biochemical; conditions: panel of 230 kinases
Procedure: as §1, §3

BLK = BLK (Homo sapiens, UniProt P51451); assay: Nanosyn kinase profiling, % inhibition; format: biochemical; conditions: panel of 230 kinases
Procedure: as §1, §3

TRKB = TRKB (Homo sapiens, UniProt Q16620); assay: Nanosyn kinase profiling, % inhibition; format: biochemical; conditions: panel of 230 kinases
TRKB, sequence (Q16620 32-822): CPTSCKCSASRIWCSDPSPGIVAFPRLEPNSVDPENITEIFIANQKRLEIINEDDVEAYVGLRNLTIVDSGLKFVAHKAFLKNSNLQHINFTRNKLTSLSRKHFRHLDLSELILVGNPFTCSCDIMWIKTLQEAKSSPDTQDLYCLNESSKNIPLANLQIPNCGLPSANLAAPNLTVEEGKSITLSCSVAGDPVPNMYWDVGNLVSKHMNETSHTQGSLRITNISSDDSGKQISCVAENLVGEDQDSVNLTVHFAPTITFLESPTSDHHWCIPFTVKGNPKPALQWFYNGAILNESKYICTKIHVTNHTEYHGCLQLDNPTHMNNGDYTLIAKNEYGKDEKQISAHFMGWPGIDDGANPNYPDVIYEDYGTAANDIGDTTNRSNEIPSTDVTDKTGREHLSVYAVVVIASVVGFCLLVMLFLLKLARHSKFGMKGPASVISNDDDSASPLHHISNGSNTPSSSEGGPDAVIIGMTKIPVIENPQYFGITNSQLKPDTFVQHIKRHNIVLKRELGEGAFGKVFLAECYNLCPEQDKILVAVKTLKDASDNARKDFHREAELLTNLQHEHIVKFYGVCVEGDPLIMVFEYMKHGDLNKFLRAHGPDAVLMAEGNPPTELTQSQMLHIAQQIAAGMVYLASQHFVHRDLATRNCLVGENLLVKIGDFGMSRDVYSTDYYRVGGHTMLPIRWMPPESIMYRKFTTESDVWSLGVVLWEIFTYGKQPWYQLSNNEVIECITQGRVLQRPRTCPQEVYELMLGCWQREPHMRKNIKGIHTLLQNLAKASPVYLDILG
Procedure: as §1, §3

CSF1R [1] = target: T2, CSF1R (Homo sapiens, UniProt P07333); conditions: cited from earlier work
T2 construct: literature Ambit Biosciences
T2 sequence (P07333 20-972): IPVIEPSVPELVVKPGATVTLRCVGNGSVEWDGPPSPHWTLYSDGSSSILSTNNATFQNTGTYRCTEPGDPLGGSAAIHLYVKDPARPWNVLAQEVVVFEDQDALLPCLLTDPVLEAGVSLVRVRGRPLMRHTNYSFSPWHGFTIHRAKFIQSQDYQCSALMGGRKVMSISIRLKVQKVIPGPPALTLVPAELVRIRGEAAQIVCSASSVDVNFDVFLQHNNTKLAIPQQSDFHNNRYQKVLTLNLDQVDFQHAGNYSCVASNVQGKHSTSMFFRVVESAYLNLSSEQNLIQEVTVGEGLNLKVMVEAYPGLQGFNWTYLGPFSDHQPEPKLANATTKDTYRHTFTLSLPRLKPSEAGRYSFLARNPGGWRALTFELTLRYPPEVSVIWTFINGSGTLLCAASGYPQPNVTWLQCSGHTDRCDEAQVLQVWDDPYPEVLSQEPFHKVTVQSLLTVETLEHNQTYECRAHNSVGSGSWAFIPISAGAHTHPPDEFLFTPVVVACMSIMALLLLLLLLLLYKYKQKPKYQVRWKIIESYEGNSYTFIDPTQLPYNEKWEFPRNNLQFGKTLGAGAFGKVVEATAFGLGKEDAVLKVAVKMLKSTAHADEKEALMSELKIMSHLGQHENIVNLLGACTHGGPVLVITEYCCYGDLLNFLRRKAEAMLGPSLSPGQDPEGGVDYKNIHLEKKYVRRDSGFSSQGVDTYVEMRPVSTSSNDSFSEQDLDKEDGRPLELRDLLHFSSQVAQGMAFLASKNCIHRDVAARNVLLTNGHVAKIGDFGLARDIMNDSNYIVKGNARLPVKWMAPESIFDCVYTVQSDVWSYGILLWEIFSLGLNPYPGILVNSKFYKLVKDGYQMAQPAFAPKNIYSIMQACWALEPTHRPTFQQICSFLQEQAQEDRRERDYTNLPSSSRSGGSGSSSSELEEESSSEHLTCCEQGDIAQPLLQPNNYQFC

CSF1R [2] = target: T2, CSF1R; conditions: 1 μM, duplicate, without preincubation; cited from earlier work
IKK-alpha = target: T3, IKK-alpha (Homo sapiens, UniProt O15111); conditions: 1 μM, duplicate, without preincubation; cited from earlier work
T3 construct: literature Ambit Biosciences

- inhibition at 5 µM (FLT4): ≥ 50%
- inhibition at 5 µM (PDGFR-α): ≥ 50%
- inhibition at 5 µM (KIT): ≥ 50%
- inhibition at 5 µM (EPHA2): ≥ 50%
- inhibition at 5 µM (TYK2): ≥ 50%
- inhibition at 5 µM (DDR2): ≥ 50%
- inhibition at 5 µM (TIE2): ≥ 50%
- inhibition at 5 µM (RON): ≥ 50%
- inhibition at 5 µM (P38-α): ≥ 50%
- inhibition at 5 µM (PDGFR-β): ≥ 50%
- inhibition at 5 µM (HIPK4): ≥ 50%
- inhibition at 5 µM (MNK2): ≥ 50%
- inhibition at 5 µM (ARG): ≥ 50%
- inhibition at 5 µM (SPHK1): ≥ 50%
- inhibition at 5 µM (MAP4K2): ≥ 50%
- inhibition at 5 µM (EPH-A3): ≥ 50%
- inhibition at 5 µM (LCK): ≥ 50%
- inhibition at 5 µM (LYNA): ≥ 50%
- inhibition at 5 µM (LYNB): ≥ 50%
- inhibition at 5 µM (HCK): ≥ 50%
- inhibition at 5 µM (BLK): ≥ 50%
- inhibition at 5 µM (TRKB): ≥ 50%
SMILES: CNC(=O)c1cc(Oc2ccc(NC(=O)c3nc(C(F)(F)F)[nH]c3-c3ccc(F)cc3)cc2)ccn1 [Inhibitor I-6, 4-(4-{[5-(4-Fluoro-phenyl)-2-trifluoromethyl-3H-imidazole-4-carbonyl]-amino}-phenoxy)-pyridine-2-carboxylic acid methylamide]

SMILES: Cc1ccc(NC(=O)c2[nH]c(C(F)(F)F)nc2-c2ccc(F)cc2)cc1Nc1ccc2ncn(C)c(=O)c2c1 [KIN-035]
- improved potency for CSF1R, KIN-032 vs KIN-035 (4-fluoro-substituent) (CSF1R [1]): 70 fold
- inhibition of CSF1R (CSF1R [2]): XXX (XXX > 75% @ 1 μM)

SMILES: Cc1ccc(-c2nc(C(F)(F)F)[nH]c2C(=O)Nc2ccc(C)c(Nc3ccc4ncn(C)c(=O)c4c3)c2)cc1F [KIN-038]
- inhibition of IKK-alpha (IKK-alpha): X (X > 25% @ 1 μM)
